“Also recorded” adds a separate entry of the source.
Experiments:
[1] = tested on: acetylation of aromatic amines (N-acetylation); test: Acetylating properties of the organism: acetylation of sodium sulfacyl, arylamines determined in urine; format: in vivo, white rats; details: for % of excretion from the dose, In acetylated form / % of excretion from the dose, In free form / Acetylating properties of the organism: Na sulfacyl acetylating in the organism of rats; for Concentration in urine, In acetylated form / Concentration in urine, In free form: Na sulfacyl in rat urine; for Na sulfacyl excretion, Sulfacyl isolation M ± m, In acetylated form / Na sulfacyl excretion, Sulfacyl isolation M ± m, In free form / Na sulfacyl excretion, Sulfacyl isolation M ± m, Total / Na sulfacyl excretion, Excretion % from the dose: rats; for Na sulfacyl excretion, Sulfacyl isolation M ± m, In acetylated form / Na sulfacyl excretion, Sulfacyl isolation M ± m, In free form / Na sulfacyl excretion, Sulfacyl isolation M ± m, Total: agent i.p. for 4 days, then Na sulfacyl 20 mg/kg i.p., urine; for Na sulfacyl excretion, Excretion % from the dose: total sulfacyl in urine relative to the sulfacyl dose
Protocol: The level of the organism supply with a vitamin is determined by the study of the reaction of acetylation of exogenous aromatic amines. The total acetylating properties of the organism were assessed by the method of quantitative determination of the content of arylamines in the examined substrate (urine).
Sodium sulfacyl was chosen as the substance for acetylation.
The influence of 4-days of injections of ketopanthenol on the acetylating properties of white rats was examined during the experiments.
The experiments were carried out using mongrel pubescent male rats. 14 animals were included in each group. The examined agent was injected intraperitoneally in a dose of 29 mg/kg. On the 4th day 4 hours after the last injection of the examined agent the sodium sulfacyl solution in a dose of 20 mg/kg was injected intraperitoneally. All the rats were separated into exchangeable cages for urine gathering. The resulting data were compared with the control groups (group I - only received sodium sulfacyl in a dose of 20 mg/kg, and group II received calcium D-pantothenate).
The average weight of the animals in the group fluctuated within 154.7 ± 10.8 g, the absolute dose of sodium sulfacyl was 3.09 ± 0.14 mg.

in vivo = details: mouse, po
Protocol: (§1) To determine acute toxicity of ketopanthenol, non-linear white mice of both sexes with the average mass of 19 ± 3 g were used. There were 72 mice in the experiment, the animals were divided into 12 groups, 6 animals in each group. The mice of the first 6 groups received ketopanthenol in 0.2 ml of distilled water once internally in doses: 20.0, 21.0, 22.0, 23.0, 24.0 and 25.0 g/kg.
(§2) The 12 group was the control one, the mice of this group received once internally only 0.2 ml of distilled water.
(§3) The mice were under observation for 14 days.
(§4) The LD50 calculations were carried out according to Kerber

non-linear white mice = test: in vivo; details: mouse
Protocol: as §1, §2, §3, §4

non-linear white rats = test: Subchronic toxicity and local irritating effect, 2 months daily dosing, mass growth; format: in vivo
Protocol: The study of subchronic toxicity and the local irritating effect of ketopanthenol.
In the experiment carried out for 2 months, non-linear white rats of both sexes with the average initial weight of 75 ± 3.3 g were used. The animals were divided into 7 groups. The first three groups received daily, during the whole experimental period, ketopanthenol in 0.2 ml of distilled water in doses of 13.2 mg/kg (which corresponds to the therapeutic dose of vitamin B3), 132.0 and 264 mg/kg (in doses 10 and 20 times larger than the therapeutic dose). […] The animals of the seventh group were used as control, receiving internally 0.2 ml of distilled water daily.
During the whole experiment the animals were weighed once a week and the observation on their development, state and behavior was carried out.

[2] = tested on: conjunctive bag of the eye; test: Eye irritation, aqueous solution dripped into the conjunctive bag; format: in vivo; details: eye of 5 rabbits, three days
Description: The aqueous solution of ketopanthenol was dripped into the conjunctive bag of the eye of 5 rabbits weighing 2.5 ± 0.3 kg for three days.

Solubility in solvents = format: physicochemical
[3] = dose 10 times larger than the therapeutic dose (132.0 mg/kg), 2 months
[4] = dose 20 times larger than the therapeutic dose (264 mg/kg), 2 months
[5] = rats, 13.2 mg/kg daily, 2 months
[6] = rats, 132.0 mg/kg daily, 2 months
[7] = rats, 264.0 mg/kg daily, 2 months
[8] = therapeutic dose (13.2 mg/kg), 2 months

| Compound | % of excretion from the dose, In acetylated form [1] | % of excretion from the dose, In free form [1] | Acetylating properties of the organism [1] | Concentration in urine, In acetylated form [1] | Concentration in urine, In free form [1] | Na sulfacyl excretion, Sulfacyl isolation M ± m, In acetylated form [1] | Na sulfacyl excretion, Sulfacyl isolation M ± m, In free form [1] | Na sulfacyl excretion, Sulfacyl isolation M ± m, Total [1] | Na sulfacyl excretion, Excretion % from the dose [1] | MTD at 336 h (in vivo) | growth of the mass of the rats, higher in comparison with the control animals (non-linear white rats; [3]) | growth of the mass of the rats, higher in comparison with the control animals (non-linear white rats; [4]) | Mass growth during the experiment (non-linear white rats; [5]) | Mass growth during the experiment, % to the control (non-linear white rats; [5]) | Mass, Final (non-linear white rats; [5]) | Mass growth during the experiment (non-linear white rats; [6]) | Mass growth during the experiment, % to the control (non-linear white rats; [6]) | Mass, Final (non-linear white rats; [6]) | Mass growth during the experiment (non-linear white rats; [7]) | Mass growth during the experiment, % to the control (non-linear white rats; [7]) | further results |
| --- | --- | --- | --- | --- | --- | --- | --- | --- | --- | --- | --- | --- | --- | --- | --- | --- | --- | --- | --- | --- | --- |
| CC(C)(CO)[C@@H](O)C(=O)NCCC(=O)O [D (+) pantothenate Ca, calcium D-pantothenate, reference compound] | 22.3 ± 1.8% | 70.7 ± 6.0% | 24.0 | 0.172 mg/mL | 0.54 mg/mL | 0.67 ± 0.04 | 2.12 ± 0.09 | 2.79 ± 0.19 | 93.0% | – | – | – | – | – | – | – | – | – | – | – | – |
| CC(C)(CO)C(=O)C(=O)NCCCO [ketopanthenol] | 32.0 ± 2.3% | 62.1 ± 2.9% | 34.0 | 0.36 mg/mL | 0.71 mg/mL | 0.99 ± 0.4 | 1.92 ± 0.09 | 2.91 ± 0.21 | 94.2% | 21000 mg/kg | 12.0% | 6.5% | 132.7 ± 10.7 g | 103.72% | 210.7 ± 18.1 | 134.3 ± 8.4 g | 112.0% | 209.5 ± 22.5 | 127.7 ± 11.0 g | 106.5% | excretion of the sulfacyl in its free form, lower ([1]; compared with the series I (control)): 20%; increase of the acetylating properties of the organism ([1]; in comparison with calcium D-pantothenate): 1.5 times; increase of the excretion of the acetylated product ([1]; in comparison with group II (calcium D-pantothenate)): 1.7 times; increase of the acetylating properties of the organism ([1]; in comparison with the control): 3.6 times; increase of the excretion of the acetylated product ([1]; in comparison with the control group): 4 times; LD50 at 336 h (in vivo): 23500 mg/kg; dose from which mice lost mobility, had quickened breathing, inertia, narrowed eye slots (non-linear white mice): ≥ 22000 mg/kg; LD100 (non-linear white mice; 20160 min): 25000 mg/kg; Mass, Final (non-linear white rats; [7]): 200.1 ± 12.3; changes in development, state and behavior of the animals (non-linear white rats; rats, 2 months, in comparison with the control rats): No changes; toxic influence on the animals' organism (non-linear white rats; rats, prolonged period (2 months)): no toxic influence; also recorded: no toxic effect; local irritating effect (non-linear white rats; rats, visual examination of the internal organs after slaughtering): no local irritating effect was observed; growth of the mass of the rats, higher in comparison with the control animals (non-linear white rats; [8]): 10.7%; irritating effect [2]: No irritating effect was observed; solubility (Solubility in solvents; in ether): poor solubility; solubility (Solubility in solvents; in water, alcohols, acetone, chloroform): good solubility |
| CC(C)(CO)[C@@H](O)C(=O)NCCCO [D-panthenol, D-pantothenyl alcohol, reference compound] | – | – | – | – | – | – | – | – | – | 21000 mg/kg | 9.3% | 5.2% | 129.5 ± 8.5 g | 108.0% | 202.0 ± 16.4 | 131.1 ± 8.5 g | 109.3% | 205.1 ± 16.0 | 126.1 ± 9.3 g | 105.2% | Mass, Final (non-linear white rats; [7]): 197.3 ± 18.8; growth of the mass of the rats, higher in comparison with the control animals (non-linear white rats; [8]): 8.0% |

Source: patent EP0748793A1, “KETOPANTHENOL WITH ACETYLATING PROPERTIES” (TOVARISCHESTVO S OGRANICHENNOI OTVETSTVENNOSTJU " PANT", priority 1994, dated 1995)
